For five molecules, IC50 results are on record in BindingDB's records for doi:10.1016/j.ejmech.2014.06.070 (The University of Newcastle, 2014).

A short description of this experiment: Inhibition of Dynamin 1 in serum-starved human U2OS cells assessed as inhibition of clathrin-mediated […]-cojugated transferrin uptake pretreated for 30 mins by high-content imaging method.
`O=C1C=C(Nc2ccc(C(=O)O)cc2)C(=O)C=C1Nc1ccc(C(=O)O)cc1`: the half-maximal inhibitory concentration (IC50) (commonly the point on the concentration scale where inhibition reaches its midpoint) turned out to be 200 µM.

With `O=C1C=C(Nc2cccc(C(=O)O)c2)C(=O)C=C1Nc1cccc(C(=O)O)c1`, the IC50 is > 300 µM. As to `O=C1C=C(Nc2ccccc2C(=O)O)C(=O)C=C1Nc1ccccc1C(=O)O` [2,2'-(3,6-dioxocyclohexa-1,4-diene-1,4-diyl)bis(azanediyl)dibenzoic acid], the concentration for half-maximal inhibition (IC50) was determined as 162 µM. Regarding `O=C1C=C(NCc2ccccc2)C(=O)C=C1NCc1ccccc1`, the IC50 was found to be 120 µM. In the case of `O=C1C=C(Nc2ccc(O)cc2)C(=O)C=C1Nc1ccc(O)cc1` it was 36 µM.
